Reference: patent US20240309007A1, “CRYSTALLINE FORMS OF 3-{4-[(2R)-2-AMINOPROPOXY]PHENYL}-N-[(1R)- 1-(3-FLUOROPHENYL) ETHYL]IMIDAZO[1,2-B]PYRIDAZIN-6-AMINE AND SALTS THEREOF” (ANHEART THERAPEUTICS (HANGZHOU) CO., LTD., priority 2021, published 2024)
Entries after “also recorded” stand apart in the source; their conditions may differ.

Tests used:
[1] = Long-term stability test, 25° C./60% RH, three years; format: physicochemical; conditions: for Appearance / Assay (anhydrous and solvent free basis) / Individual unspecified impurity (Maximum) / Total impurities / Water content / deF-6051: 25° C. ± 2° C./60 ± 5% RH
Protocol: The long-term stability test of the crystalline form A of Compound 1 adipate was performed by storing a sample at 25°±2° C./[…] for three years.

[2] = Dynamic Vapor Sorption (DVS), hygroscopicity; format: physicochemical
Protocol: Dynamic Vapor Sorption (DVS) was performed by using Intrinsic DVS (Surface Measurement Systems, UK). A sample was weighed in an amount of 20-30 mg and was placed in a sample chamber. The measurement was performed at DMDT mode when the temperature of the sample chamber was maintained at 25±1° C.

With C[C@@H](N)COc1ccc(-c2cnc3ccc(N[C@H](C)c4cccc(F)c4)nn23)cc1 [crystalline form A of Compound 1 adipate, 3-{4-[(2R)-2-aminopropoxy]phenyl}-N-[(1R)-1-(3-fluorophenyl)ethyl]imidazo[1,2-b]pyridazin-6-amine] the “stability (in words)” value [1] was “superior stability”, the Appearance ([1]; 0 M) was “White” and the “Assay (anhydrous and solvent free basis)” value ([1]; 0 M) was 100.0%. The “Individual unspecified impurity (Maximum)” value ([1]; 0 M) was 0.09%, the Total impurities ([1]; 0 M) was 0.61% and the Water content ([1]; 0 M) was 0.07%. For the same molecule, the deF-6051 ([1]; 0 M) was 0.46%, the Appearance ([1]; 3 M) was “White” and the “Assay (anhydrous and solvent free basis)” value ([1]; 3 M) was 100.0%. The “Individual unspecified impurity (Maximum)” value ([1]; 3 M) was 0.09%, the Total impurities ([1]; 3 M) was 0.61% and the Water content ([1]; 3 M) was 0.08%. The deF-6051 ([1]; 3 M) was 0.46%, the Appearance ([1]; 6 M) was “White” and the “Assay (anhydrous and solvent free basis)” value ([1]; 6 M) was 100.0%. For the same molecule, the “Individual unspecified impurity (Maximum)” value ([1]; 6 M) was 0.09%, the Total impurities ([1]; 6 M) was 0.54% and the Water content ([1]; 6 M) was 0.11%. The deF-6051 ([1]; 6 M) was 0.45%, the Appearance ([1]; 9 M) was “White” and the “Assay (anhydrous and solvent free basis)” value ([1]; 9 M) was 99.9%. The “Individual unspecified impurity (Maximum)” value ([1]; 9 M) was 0.09%, the Total impurities ([1]; 9 M) was 0.60% and the Water content ([1]; 9 M) was 0.08%. For the same molecule, the deF-6051 ([1]; 9 M) was 0.46%, the Appearance ([1]; 12 M) was “White” and the “Assay (anhydrous and solvent free basis)” value ([1]; 12 M) was 100.2%. For the same molecule, the “Individual unspecified impurity (Maximum)” value ([1]; 12 M) was 0.09%, the Total impurities ([1]; 12 M) was 0.55% and the Water content ([1]; 12 M) was 0.09%. The deF-6051 ([1]; 12 M) was 0.46%, the Appearance ([1]; 18 M) was “White” and the “Assay (anhydrous and solvent free basis)” value ([1]; 18 M) was 100.2%. For the same molecule, the “Individual unspecified impurity (Maximum)” value ([1]; 18 M) was 0.09%, the Total impurities ([1]; 18 M) was 0.55% and the Water content ([1]; 18 M) was 0.06%. For the same molecule, the deF-6051 ([1]; 18 M) was 0.46%, the Appearance ([1]; 24 M) was “White” and the “Assay (anhydrous and solvent free basis)” value ([1]; 24 M) was 99.7%. The “Individual unspecified impurity (Maximum)” value ([1]; 24 M) was 0.09%, the Total impurities ([1]; 24 M) was 0.54% and the Water content ([1]; 24 M) was 0.07%. For the same molecule, the deF-6051 ([1]; 24 M) was 0.45%, the Appearance ([1]; 36 M) was “White” and the “Assay (anhydrous and solvent free basis)” value ([1]; 36 M) was 100.0%. The “Individual unspecified impurity (Maximum)” value ([1]; 36 M) was 0.09%, the Total impurities ([1]; 36 M) was 0.53% and the Water content ([1]; 36 M) was 0.06%. The deF-6051 ([1]; 36 M) was 0.44%, the “time stable at room temperature in a sealed container” value ([1]; room temperature, sealed container) was “at least 36 months” and the “crystalline form (XRPD) of the sample before and after the DVS test” value [2] was “did not change”. The “weight increase (DVS)” value ([2]; at 80% RH, 25±1° C.) was 0.235% and the “hygroscopicity (in words)” value ([2]; from DVS weight increase at 80% RH) was “low hygroscopicity; also recorded: very low or nearly no hygroscopicity”.
